Our source for the IC50 values is patent US11046699B2, “Pyrazolo-pyrimidin-amino-cycloalkyl compounds and their therapeutic uses” (RAPT THERAPEUTICS, INC., priority 2018, dated 2021).

Where a name gives a salt, the structure may show the parent alone. Read-outs that look alike come from different tables or passages of the source.

This assay concerns the target GCN2 (Homo sapiens, UniProt Q9P2K8). The experiment in a line: GCN2 enzymatic endpoint assay: phosphorylation of GFP-eIF2α measured by TR-FRET (Lanthascreen). Format: biochemical. Put shortly:
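Endpoint kinase reaction with 2 μM ATP and 80 nM GFP-labelled eIF2α substrate, run at room temperature for 90 min, then stopped with EDTA. Phospho-substrate detected by terbium-antibody TR-FRET, activity taken as the 520/495 nm emission ratio.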

Setting [1] is: GCN2 biochemical IC50, 4 nM GCN2, 2 μM ATP, 80 nM GFP-eIF2α, 90 min RT, read-out: GCN2 activity.
Setting [2] is: tested as described in Example 77, compound and/or hydrochloride, dihydrochloride or trifluoroacetic acid salt, read-out: IC 50 Activity.

Chain of GCN2 (Q9P2K8 whole entry): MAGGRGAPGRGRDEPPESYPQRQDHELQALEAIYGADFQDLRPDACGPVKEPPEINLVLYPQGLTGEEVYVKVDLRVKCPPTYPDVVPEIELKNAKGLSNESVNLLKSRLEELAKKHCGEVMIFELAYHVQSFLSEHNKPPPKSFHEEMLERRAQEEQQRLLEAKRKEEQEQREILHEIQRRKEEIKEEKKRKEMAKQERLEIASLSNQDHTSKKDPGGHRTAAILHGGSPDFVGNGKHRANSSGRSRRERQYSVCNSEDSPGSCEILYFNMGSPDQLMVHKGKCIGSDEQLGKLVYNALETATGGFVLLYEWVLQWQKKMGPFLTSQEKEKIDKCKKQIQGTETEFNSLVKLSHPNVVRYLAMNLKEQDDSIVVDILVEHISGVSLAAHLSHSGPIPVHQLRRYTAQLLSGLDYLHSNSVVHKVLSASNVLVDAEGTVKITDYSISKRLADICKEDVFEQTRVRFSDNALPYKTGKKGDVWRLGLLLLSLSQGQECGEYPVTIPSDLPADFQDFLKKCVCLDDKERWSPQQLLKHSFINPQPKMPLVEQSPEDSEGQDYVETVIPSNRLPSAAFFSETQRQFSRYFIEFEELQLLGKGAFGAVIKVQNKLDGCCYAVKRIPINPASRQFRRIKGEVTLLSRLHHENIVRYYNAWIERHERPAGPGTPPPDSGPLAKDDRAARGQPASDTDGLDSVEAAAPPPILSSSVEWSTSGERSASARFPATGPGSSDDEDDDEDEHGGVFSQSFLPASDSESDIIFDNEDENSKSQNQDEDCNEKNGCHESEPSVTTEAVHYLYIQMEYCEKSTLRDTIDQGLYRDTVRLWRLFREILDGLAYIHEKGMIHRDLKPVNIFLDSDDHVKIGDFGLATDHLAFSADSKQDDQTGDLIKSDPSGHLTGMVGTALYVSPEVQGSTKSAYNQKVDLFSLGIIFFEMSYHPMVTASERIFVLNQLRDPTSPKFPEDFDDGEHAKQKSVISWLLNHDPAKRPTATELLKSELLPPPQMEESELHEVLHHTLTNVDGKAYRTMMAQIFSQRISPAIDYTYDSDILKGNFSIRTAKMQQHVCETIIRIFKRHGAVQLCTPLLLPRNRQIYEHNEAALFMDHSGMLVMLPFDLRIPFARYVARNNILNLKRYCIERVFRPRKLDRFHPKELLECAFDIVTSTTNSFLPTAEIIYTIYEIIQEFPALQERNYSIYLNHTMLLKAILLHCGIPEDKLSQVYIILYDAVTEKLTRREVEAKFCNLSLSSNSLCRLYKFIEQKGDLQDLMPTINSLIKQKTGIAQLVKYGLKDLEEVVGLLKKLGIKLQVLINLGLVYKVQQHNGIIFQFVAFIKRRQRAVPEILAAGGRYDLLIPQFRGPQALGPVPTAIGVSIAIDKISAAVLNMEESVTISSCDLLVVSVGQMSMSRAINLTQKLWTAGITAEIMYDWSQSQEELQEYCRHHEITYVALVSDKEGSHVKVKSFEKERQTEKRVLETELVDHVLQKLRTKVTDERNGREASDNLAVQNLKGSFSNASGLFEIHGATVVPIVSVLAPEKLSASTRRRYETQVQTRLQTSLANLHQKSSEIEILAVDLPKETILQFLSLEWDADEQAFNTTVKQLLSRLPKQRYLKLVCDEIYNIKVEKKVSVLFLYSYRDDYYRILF

On to `Cc1nnc(-c2ccc(-n3nc(Br)c4cnc(N[C@@H]5CC[C@@](C)(O)C5)nc43)cc2)s1` [Example 74, (1R,3R)-3-((3-bromo-1-(4-(5-methyl-1,3,4-thiadiazol-2-yl)phenyl)-1H-pyrazolo[3,4-d]pyrimidin-6-yl)amino)-1-methylcyclopentan-1-ol], for which the IC50 under setting [1] was in the range of 25 to 200 nM. With `C[C@H](N)c1cc(Cl)cc(-n2nc(Br)c3cnc(N[C@@H]4CC[C@@](C)(O)C4)nc32)c1` [Example 75, (1R,3R)-3-((1-(3-((S)-1-aminoethyl)-5-chlorophenyl)-3-bromo-1H-pyrazolo[3,4-d]pyrimidin-6-yl)amino)-1-methylcyclopentan-1-ol], the IC50 under setting [1] lay in the range of 25 to 200 nM. Still for that read-out and setting: under `Cc1nnc(-c2ccc(-n3nc(Br)c4cnc(N[C@@H]5CC[C@@](C)(O)C5)nc43)cc2CCC#N)s1` [Example 76, 3-(5-(3-bromo-6-(((1R,3R)-3-hydroxy-3-methylcyclopentyl)amino)-1H-pyrazolo[3,4-d]pyrimidin-1-yl)-2-(5-methyl-1,3,4-thiadiazol-2-yl)phenyl)propanenitrile] stands 25 to 200 nM. In the case of `CN(CCNC(=O)[C@@H]1CC[C@@H](Nc2ncc3c(Br)nn(-c4cc(F)c5ncccc5c4)c3n2)C1)CC(=O)O` [N-(2-((1R,3R)-3-((3-bromo-1-(8-fluoroquinolin-6-yl)-1H-pyrazolo[3,4-d]pyrimidin-6-yl)amino)cyclopentane-1-carboxamido)ethyl)-N-methylglycine], the IC50 under setting [2] is 25 to 200 nM.

For the compound `CN(CCNC(=O)[C@@H]1CC[C@@H](Nc2ncc3c(Br)nn(-c4ccc5ncccc5c4)c3n2)C1)CC(=O)O` [N-(2-((1R,3R)-3-((3-bromo-1-(quinolin-6-yl)-1H-pyrazolo[3,4-d]pyrimidin-6-yl)amino)cyclopentane-1-carboxamido)ethyl)-N-methylglycine], under setting [2], the IC50 is 25 to 200 nM. On the same count and under the same terms, with `CNC(=O)[C@]1(C)CC[C@@H](Nc2ncc3c(Br)nn(-c4cc(Cl)cc(C(=O)N(C)C5CNC5)c4)c3n2)C1` [N-(azetidin-3-yl)-3-[3-bromo-6-[[(1R,3R)-3-methyl-3-(methylcarbamoyl)cyclopentyl]amino]pyrazolo[3,4-d]pyrimidin-1-yl]-5-chloro-N-methyl-benzamide] the figure was 25 to 200 nM; with `CNC(=O)[C@]1(C)CC[C@@H](Nc2ncc3c(Br)nn(-c4cc(Cl)cc(C(=O)NC5CNC5)c4)c3n2)C1` [N-(azetidin-3-yl)-3-[3-bromo-6-[[(1R,3R)-3-methyl-3-(methylcarbamoyl)cyclopentyl]amino]pyrazolo[3,4-d]pyrimidin-1-yl]-5-chloro-benzamide], 25 to 200 nM. Still for that read-out and setting: with `CNC(=O)[C@]1(C)CC[C@@H](Nc2ncc3c(Br)nn(-c4cc(Cl)cc(NC(=O)C5CNC5)c4)c3n2)C1` [N-[3-[3-bromo-6-[[(1R,3R)-3-methyl-3-(methylcarbamoyl)cyclopentyl]amino]pyrazolo[3,4-d]pyrimidin-1-yl]-5-chloro-phenyl]azetidine-3-carboxamide] the figure was 25 to 200 nM; with `CNC(=O)[C@]1(C)CC[C@@H](Nc2ncc3c(Br)nn(-c4cccc(NC(=O)c5cncnc5)c4)c3n2)C1` [N-[3-[3-bromo-6-[[(1R,3R)-3-methyl-3-(methylcarbamoyl)cyclopentyl]amino]pyrazolo[3,4-d]pyrimidin-1-yl]phenyl] pyrimidine-5-carboxamide], 25 to 200 nM; with `CNC(=O)[C@]1(C)CC[C@@H](Nc2ncc3c(Br)nn(-c4cccc(NC(=O)c5cscn5)c4)c3n2)C1` [N-[3-[3-bromo-6-[[(1R,3R)-3-methyl-3-(methylcarbamoyl)cyclopentyl]amino]pyrazolo[3,4-d]pyrimidin-1-yl]phenyl] thiazole-4-carboxamide], 25 to 200 nM. With `CNC(=O)[C@]1(C)CC[C@@H](Nc2ncc3c(Br)nn(-c4cccc(NC(=O)c5ccn[nH]5)c4)c3n2)C1` [N-[3-[3-bromo-6-[[(1R,3R)-3-methyl-3-(methylcarbamoyl)cyclopentyl]amino]pyrazolo[3,4-d]pyrimidin-1-yl]phenyl]-1H-pyrazole-5-carboxamide], under setting [2], the IC50 lay in the range of 25 to 200 nM. Still for that read-out and setting: with `Fc1cc(-n2nc(Br)c3cnc(NC4COC5(CCNCC5)C4)nc32)cc2cccnc12` (stereo not drawn) [N-[3-bromo-1-(8-fluoro-6-quinolyl)pyrazolo [3,4-d]pyrimidin-6-yl]-1-oxa-8-azaspiro[4.5] decan-3-amine] the figure was 25 to 200 nM; with `CNC(=O)[C@]1(C)CC[C@@H](Nc2ncc3c(Br)nn(-c4ccc(-c5ncco5)c(NC(=O)C5CNC5)c4)c3n2)C1` [N-[5-[3-bromo-6-[[(1R,3R)-3-methyl-3-(methylcarbamoyl)cyclopentyl]amino]pyrazolo[3,4-d]pyrimidin-1-yl]-2-oxazol-2-yl-phenyl]azetidine-3-carboxamide], below 25 nM. Same read-out and setting: under `CNC(=O)[C@]1(C)CC[C@@H](Nc2ncc3c(Br)nn(-c4ccc(-c5ncco5)c(NC(=O)C5CCNCC5)c4)c3n2)C1` [N-[5-[3-bromo-6-[[(1R,3R)-3-methyl-3-(methylcarbamoyl)cyclopentyl]amino]pyrazolo[3,4-d]pyrimidin-1-yl]-2-oxazol-2-yl-phenyl]piperidine-4-carboxamide] stands below 25 nM; under `CNC(=O)[C@]1(C)CC[C@@H](Nc2ncc3c(Br)nn(-c4ccc5ncc(NC(=O)C6CNC6)cc5c4)c3n2)C1` [N-[6-[3-bromo-6-[[(1R,3R)-3-methyl-3-(methylcarbamoyl)cyclopentyl]amino]pyrazolo[3,4-d]pyrimidin-1-yl]-3-quinolyl]azetidine-3-carboxamide], below 25 nM. Still for that read-out and setting: with `Cc1nnc(-c2ccc(-n3nc(Br)c4cnc(N[C@@H]5CC[C@@H](NC(=O)C(C)C)C5)nc43)cc2CCC#N)s1` [N-[(1R,3R)-3-[[3-bromo-1-[3-(2-cyanoethyl)-4-(5-methyl-1,3,4-thiadiazol-2-yl)phenyl]pyrazolo[3,4-d]pyrimidin-6-yl]amino]cyclopentyl]-2-methyl-propanamide] the figure was 500 to 1000 nM; with `Cc1nnc(-c2ccc(-n3nc(Br)c4cnc(N[C@@H]5CC[C@@H](NC(=O)C(C)C)C5)nc43)cc2)s1` [N-[(1R,3R)-3-[[3-bromo-1-[4-(5-methyl-1,3,4-thiadiazol-2-yl)phenyl]pyrazolo [3,4-d]pyrimidin-6-yl]amino]cyclopentyl]-2-methyl-propanamide], 25 to 200 nM. Consider `Cc1nnc(-c2ccc(-n3nc(Br)c4cnc(N[C@@H]5CC[C@@H](NC(=O)C6CC(C)(O)C6)C5)nc43)cc2)s1` (stereo partly drawn) [N-[(1R,3R)-3-[[3-bromo-1-[4-(5-methyl-1,3,4-thiadiazol-2-yl)phenyl]pyrazolo [3,4-d]pyrimidin-6-yl]amino]cyclopentyl]-3-hydroxy-3-methyl-cyclobutane-carboxamide], for which the IC50 under setting [2] is 25 to 200 nM. `C[C@H](N)c1cc(Cl)cc(-n2nc(Br)c3cnc(N[C@@H]4CC[C@@](C)(C(=O)N5CCNCC5)C4)nc32)c1` [[(1R,3R)-3-[[1-[3-[(1S)-1-aminoethyl]-5-chloro-phenyl]-3-bromo-pyrazolo [3,4-d]pyrimidin-6-yl]amino]-1-methyl-cyclopentyl]-piperazin-1-yl-methanone]: the IC50 under setting [2] lay in the range of 25 to 200 nM. Turning to `C[C@H](N)c1cc(Cl)cc(-n2nc(Br)c3cnc(N[C@@H]4CC[C@@](C)(CO)C4)nc32)c1` [[(1R,3R)-3-[[1-[3-[(1S)-1-aminoethyl]-5-chloro-phenyl]-3-bromo-pyrazolo [3,4-d]pyrimidin-6-yl]amino]-1-methyl-cyclopentyl]methanol hydrochloride], the IC50 under setting [2] lay in the range of 25 to 200 nM.

Regarding `COC1(C)CN(C(=O)[C@]2(C)CC[C@@H](Nc3ncc4c(Br)nn(-c5cc(F)c6ncccc6c5)c4n3)C2)C1` [[(1R,3R)-3-[[3-bromo-1-(8-fluoro-6-quinolyl)pyrazolo[3,4-d]pyrimidin-6-yl]amino]-1-methyl-cyclopentyl]-(3-methoxy-3-methyl-azetidin-1-yl)methanone], the IC50 under setting [2] is below 25 nM. `COC1CCN(C(=O)[C@]2(C)CC[C@@H](Nc3ncc4c(Br)nn(-c5cc(F)c6ncccc6c5)c4n3)C2)C1` (stereo partly drawn) [[(1R,3R)-3-[[3-bromo-1-(8-fluoro-6-quinolyl)pyrazolo[3,4-d]pyrimidin-6-yl]amino]-1-methyl-cyclopentyl]-(3-methoxypyrrolidin-1-yl)methanone]: the IC50 under setting [2] lay within 25 to 200 nM.

In the case of `Cc1cn2c(n1)CN(C(=O)[C@@H]1CC[C@@H](Nc3ncc4c(Br)nn(-c5cc(F)c6ncccc6c5)c4n3)C1)CC2` [[(1R,3R)-3-[[3-bromo-1-(8-fluoro-6-quinolyl)pyrazolo[3,4-d]pyrimidin-6-yl]amino]cyclo-pentyl]-(2-methyl-6,8-dihydro-5H-imidazo [1,2-a]pyrazin-7-yl)methanone], under setting [2], the IC50 fell in the range of 25 to 200 nM. Still for that read-out and setting: under `O=C([C@@H]1CC[C@@H](Nc2ncc3c(Br)nn(-c4cc(F)c5ncccc5c4)c3n2)C1)N1CCC2(CNC2)C(F)(F)C1` [[(1R,3R)-3-[[3-bromo-1-(8-fluoro-6-quinolyl)pyrazolo[3,4-d]pyrimidin-6-yl]amino]cyclo-pentyl]-(5,5-difluoro-2,7-diazaspiro[3.5]nonan-7-yl)methanone] stands below 25 nM; under `O=C([C@@H]1CC[C@@H](Nc2ncc3c(Br)nn(-c4cc(F)c5ncccc5c4)c3n2)C1)N1CCNC(C(F)(F)F)C1` (stereo partly drawn) [[(1R,3R)-3-[[3-bromo-1-(8-fluoro-6-quinolyl)pyrazolo[3,4-d]pyrimidin-6-yl]amino]cyclo-pentyl]-[3-(trifluoromethyl)piperazin-1-yl] methanone], 25 to 200 nM; under `Cc1nnc(-c2ccc(-n3nc(Br)c4cnc(N[C@@H]5CC[C@@](C)(C(=O)N6CCNCC6)C5)nc43)cc2)s1` [[(1R,3R)-3-[[3-bromo-1-[4-(5-methyl-1,3,4-thiadiazol-2-yl)phenyl]pyrazolo [3,4-d]pyrimidin-6-yl]amino]-1-methyl-cyclopentyl]-piperazin-1-yl-methanone], 25 to 200 nM. The same measure, in the same setting: with `Cc1nnc(-c2ccc(-n3nc(Br)c4cnc(N[C@@H]5CC[C@@](C)(CO)C5)nc43)cc2)s1` [[(1R,3R)-3-[[3-bromo-1-[4-(5-methyl-1,3,4-thiadiazol-2-yl)phenyl]pyrazolo [3,4-d]pyrimidin-6-yl]amino]-1-methyl-cyclopentyl]methanol] the figure was 25 to 200 nM.
